Data published in US8106055B2, “Substituted amide compounds” (Gruenenthal GmbH, priority 2007, dated 2012).

Legend:
[1] = target: T1, human μ opiate receptor (Homo sapiens, UniProt P35372); assay: Affinity for the human μ opiate receptor ([3H]-naloxone displacement, CHO-K1 receptor membrane preparation, SPA); format: binding; settings: test concentration of 1 μM; for inhibition at 1 µM: read-out: μ (binding on the μ opioid receptor, % inhibition)
T1 construct: purchased PerkinElmer Life Sciences, Zaventem, Belgium RB-HOM; host or cells: CHO-K1 cells (membrane preparation)
T1 sequence (P35372 whole entry): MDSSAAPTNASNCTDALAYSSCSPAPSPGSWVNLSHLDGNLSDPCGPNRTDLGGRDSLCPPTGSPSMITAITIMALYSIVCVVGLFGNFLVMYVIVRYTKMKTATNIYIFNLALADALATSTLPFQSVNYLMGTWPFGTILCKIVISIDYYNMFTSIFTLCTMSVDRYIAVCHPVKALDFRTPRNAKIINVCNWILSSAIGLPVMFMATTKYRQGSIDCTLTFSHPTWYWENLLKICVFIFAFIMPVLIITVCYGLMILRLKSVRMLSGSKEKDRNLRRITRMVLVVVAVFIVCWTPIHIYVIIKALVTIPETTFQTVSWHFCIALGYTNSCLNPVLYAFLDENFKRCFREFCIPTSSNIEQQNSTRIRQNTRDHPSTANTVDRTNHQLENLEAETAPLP
Summary of the method: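 At 1 μmol/l, compounds were scored for % displacement of 1 nmol/l [3H]-naloxone from CHO-K1-expressed human μ opiate receptor in a homogeneous SPA format (90 min, room temperature).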

[2] = target: T2, bradykinin 1 receptor (B1R) of the rat (Rattus norvegicus, UniProt P97583); assay: Functional investigation on the rat bradykinin 1 receptor (B1R), Ca2+ FLIPR assay in CHO K1 rB1R cells; format: cell-based; settings: test substance 10 μM, Ca2+ FLIPR, CHO K1 rB1R cells; for inhibition at 10 µM: CHO-K1, B1R antagonism rat, read-out: B1R Ant. r [10 μM] % Inhibition
T2 construct: expressed in transfected cells; host or cells: CHO K1 cells
T2 sequence (P97583 1-337): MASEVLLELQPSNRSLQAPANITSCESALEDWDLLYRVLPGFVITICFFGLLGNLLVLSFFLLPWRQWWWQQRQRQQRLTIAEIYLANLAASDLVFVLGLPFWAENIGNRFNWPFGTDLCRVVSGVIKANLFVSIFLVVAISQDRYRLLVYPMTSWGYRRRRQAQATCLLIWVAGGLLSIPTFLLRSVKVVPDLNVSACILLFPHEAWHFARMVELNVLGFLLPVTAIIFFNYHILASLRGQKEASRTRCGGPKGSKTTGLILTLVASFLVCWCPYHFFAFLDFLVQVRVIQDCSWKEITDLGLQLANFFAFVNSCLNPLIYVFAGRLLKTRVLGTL
Summary of the method: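 Peak Ca2+-dependent fluorescence in B1R-transfected CHO K1 cells measures antagonism of an EC80 agonist challenge given 10-20 min after compound. Agonist is Lys-Des-Arg9-bradykinin for human, Des-Arg9-bradykinin for rat receptor.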

Row | Compound | inhibition at 1 µM [1] | inhibition at 10 µM [2] | μ (binding on the μ opioid receptor, % inhibition) [1] | B1R Ant. r [10 μM] % Inhibition ([2]; B1R antagonism rat)
1 | COc1ccc(S(=O)(=O)N2CCCC2COCC(=O)NCC2CCC(C(c3cccs3)N(C)C)CC2)cc1 (stereo not shown) [Example 105, N-((4-((dimethylamino)(thiophen-2-yl)methyl)cyclohexyl)methyl)-2-((1-(4-methoxyphenylsulfonyl)pyrrolidin-2-yl)methoxy)acetamide] | 93% | 24% |  | 
2 | COc1cc(C)c(S(=O)(=O)N(CCOCC(=O)NCCC2CCC(C(c3ccc(Cl)cc3)N(C)C)CC2)Cc2ccccc2)c(C)c1C (stereo not shown) [Example 576] |  |  | 15% | 3%
3 | COc1ccc(S(=O)(=O)N2CCCCC2COCC(=O)NCCC2CCC(C(c3cccs3)N(C)C)CC2)cc1OC (stereo not shown) [Example 120, 2-((1-(3,4-dimethoxyphenylsulfonyl)piperidin-2-yl)methoxy)-N-(2-(4-((dimethylamino)(thiophen-2-yl)methyl)cyclohexyl)ethyl)acetamide] | 92% | -14% |  | 
4 | COc1ccc(S(=O)(=O)N2CCCCC2COCC(=O)NCC2CCC(C(c3ccccc3)N(C)C)CC2)c(OC)c1 (stereo not shown) [Example 106, 2-((1-(2,4-dimethoxyphenylsulfonyl)piperidin-2-yl)methoxy)-N-((4-((dimethylamino)(phenyl)methyl)cyclohexyl)methyl)acetamide] | 92% | 13% |  | 
5 | CN(C)C(c1ccccc1)C1CCC(CNC(=O)COC2CCN(S(=O)(=O)c3cccc(C(F)(F)F)c3)C2)CC1 (stereo not shown) [Example 113, N-((4-((dimethylamino)(phenyl)methyl)cyclohexyl)methyl)-2-(1-(3-(trifluoromethyl)phenylsulfonyl)pyrrolidin-3-yloxy)acetamide] | 90% | 28% |  | 
